Source: patent US20250221960A1, “COMPOSITIONS AND METHODS FOR THE TREATMENT OF DEPRESSION” (Janssen Pharmaceuticals, Inc., priority 2022, published 2025)

Assays:
[1] = Weight change by treatment group, Example 1; format: in vivo, human
Method: Treatment with aticaprant as described herein has several advantages over the treatments in the art. […] As used herein, the term “weight gain” refers to an increase in the weight of patient, relative to the weight of the patient before taking aticaprant or the weight of the patient that is assessed at the time of the initial administration of the aticaprant. In certain embodiments, the patient may actually see a decrease in overall weight, relative to the weight of the patient before taking aticaprant.
At the lead-in baseline timepoint, the mean weight for subjects in the placebo group was 76.17 kg compared to 78.66 in the aticaprant group. After 6 weeks in the double-blind treatment phase, the mean weight in the placebo group was 75.75 kg compared to 78.57 kg in the aticaprant group. […] This is unexpected because other adjunctive treatments for MDD result in a mean weight increase. See, Thase M, et al. J Clin Psych. 2015: 76 (9), 1224-1231; Thase, J Clin Psych. 2015, 76 (9): 1232-1240; El Khalili, Int J Neuropsychopharmacol. 2010, 13, 917-932; Marcus, J. Clin. Psychopharmacol. […] Nashville, Tenn, ACNP, 2008; Earley, American College of Neuropsychopharmacology, 2007, Annual Meeting Abstracts (Boca Raton, Fla, Dec. 9-13, 2007). Nashville, TN, ACNP, 2007). See, Table 29.

[2] = Completion / early withdrawal, Example 1; format: in vivo, human; details: Full Safety Analysis Set; 10 mg, N = 85
Excerpt: Patients who passed the screening phase entered a lead in phase followed by a double-blind phase. Patients who responded to placebo during the lead in phase were labelled as non-responders. […] The double-blind treatment phase then continued for an additional 6 weeks, after which patients entered a withdrawal period.
Of the 121 subjects in the enriched population (60 in aticaprant and 61 in placebo group), 117 (96.7%) completed the study. The overall completion rate for the full ITT analysis set is 95%. This contrasts with completion rates of approximately 85% for studies of adjunctive aripiprazole (Pae, CNS Drugs, 2011; 25, 109-127) and 45-62% for adjunctive quetiapine (El Khalili cited above). In total 4 subjects (3.3%) discontinued the study: 2 subjects in placebo and 2 subjects in aticaprant treatment group. See, Tables 30 and 31.

[3] = system: subjects with MDD; test: SIGH-A score (anxiety), Example 1; format: in vivo, human; details: Treatment Week 6; 10 mg; 59 subjects analyzed
Excerpt: v. To investigate the effect of aticaprant on symptoms of anxiety using the HAM-A and on core symptoms of anxiety using the HAM-A6 subscale.
(§1) • (i) Depression: Montgomery-Åsberg Depression Rating Scale (MADRS), Clinical Global Impression-Severity (CGI-S), Symptoms of Major Depressive Disorder Scale (SMDDS), and Self-assessment of treatment experience (SATE) • (ii) Anhedonia: Snaith-Hamilton Pleasure Scale (SHAPS) • (iii) Anxiety: Structured Interview Guide for the Hamilton Anxiety scale (SIGH-A) and HAM-A6 • (iv) Effects on Cognition: The Cognitive and Physical Functioning Questionnaire (CPFQ) • (v) Safety assessments

[4] = system: subjects with MDD; test: SATE score, Example 1; format: in vivo, human; details: Treatment Week 6, 10 mg
Excerpt: SATE is a one to three questionnaire administered when the subject is unable to complete other evaluations, i.e., away from the clinical setting such as at home. SATE is useful to evaluate improvement or deterioration of depressive symptoms of the subjects over a short period of time. […] See, Table C.
iv. To investigate the effect of aticaprant on symptoms of depression using the Clinical Global Impression-Severity (CGI-S), the patient reported Symptoms of Major Depressive Disorder Scale (SMDDS) and the self-assessment of treatment experience (SATE).
as §1

[5] = system: subjects with MDD; test: MADRS total score, adjunctive aticaprant vs placebo (Example 1); details: for MADRS Total Score Change from Baseline LSMean (SE), MMRM / MADRS Total Score LSMean Difference (SE) Treatment - Placebo, MMRM / MADRS Total Score Effect Size vs placebo / MADRS Total Score Mean Change from Baseline (SD): 10 mg
[6] = High anhedonia, Treatment Week 1, fITT
[7] = High anhedonia, Treatment Week 3, fITT
[8] = High anhedonia, Treatment Week 4, fITT
[9] = High anhedonia, Treatment Week 5, fITT
[10] = High anhedonia, Treatment Week 6, fITT
[11] = Low anhedonia, Treatment Week 1, fITT
[12] = Low anhedonia, Treatment Week 3, fITT
[13] = Low anhedonia, Treatment Week 4, fITT
[14] = Low anhedonia, Treatment Week 5, fITT
[15] = Low anhedonia, Treatment Week 6, fITT

## Cc1cc(C)cc(C2CCCN2Cc2ccc(Oc3ccc(C(N)=O)cc3F)cc2)c1 (stereo not shown) [aticaprant, 3-fluoro-4-4-2-(3,5-dimethylphenyl) pyrrolidin-1-yl-methylphenoxybenzamide]
[1]; Withdrawal vs Lead-in, n = 85
  Mean weight: Relative % Change: −0.11%
[1]; in vivo
  weight over the 6-week double blind treatment period: remained relatively stable
[1]; n = 85
  Mean weight: Absolute Change (Withdrawal - Lead-in): -0.09 kg
[2]
  Reason For Withdrawal/Termination: Adverse event: 1 (1.2%)
[3]
  Change from Treatment Baseline in Structured Interview Guide for the SIGH-A Score, Arithmetic Mean (SD): −5.85 ± 5.369 scores on a scale
[4]; n = 0
  Number of Subjects with SATE Score: Depression Worsened (Much worse): 0 subjects
  Number of Subjects with SATE Score: Depression Worsened (Slightly worse): 0 subjects
  Number of Subjects with SATE Score: Depression Worsened (Very much worse): 0 subjects
[4]; n = 21
  Number of Subjects with SATE Score: Depression Much improved: 6 subjects
  Number of Subjects with SATE Score: Depression Slightly improved: 15 subjects
  Number of Subjects with SATE Score: Depression Very Much Improved: 0 subjects
[4]; n = 30
  Number of Subjects with SATE Score: Overall Depression (Got worse): 0 subjects
  Number of Subjects with SATE Score: Overall Depression (Improved): 21 subjects
  Number of Subjects with SATE Score: Overall Depression (Not changed): 9 subjects
[5]; High anhedonia (SHAPS >=38 at treatment baseline), Treatment Week 1, fITT
  MADRS Total Score: Mean Change from Baseline (SD): −4.4 (5.04)
[5]; [6]
  MADRS Total Score: Effect size: −0.45
  MADRS Total Score: Mean Change to Placebo (SD pooled): −2.0 (4.38)
[5]; [7]
  MADRS Total Score: Effect size: −0.54
  MADRS Total Score: Mean Change from Baseline (SD): −6.9 (6.66)
  MADRS Total Score: Mean Change to Placebo (SD pooled): −3.8 (6.94)
[5]; [8]
  MADRS Total Score: Effect size: −0.50
  MADRS Total Score: Mean Change from Baseline (SD): −8.6 (7.32)
  MADRS Total Score: Mean Change to Placebo (SD pooled): −3.8 (7.56)
[5]; [9]
  MADRS Total Score: Effect size: −0.51
  MADRS Total Score: Mean Change from Baseline (SD): −10.2 (8.04)
  MADRS Total Score: Mean Change to Placebo (SD pooled): −4.0 (7.87)
[5]; [10]
  MADRS Total Score: Effect size: −0.51
  MADRS Total Score: Mean Change from Baseline (SD): −11.3 (8.69)
  MADRS Total Score: Mean Change to Placebo (SD pooled): −4.6 (9.03)
[5]; Low anhedonia (SHAPS >=20 and <38 at treatment baseline), Treatment Week 1, fITT
  MADRS Total Score: Mean Change from Baseline (SD): −2.4 (4.59)
[5]; [11]
  MADRS Total Score: Effect size: −0.24
  MADRS Total Score: Mean Change to Placebo (SD pooled): −1.0 (4.39)
[5]; [12]
  MADRS Total Score: Effect size: −0.08
  MADRS Total Score: Mean Change from Baseline (SD): −4.1 (6.67)
  MADRS Total Score: Mean Change to Placebo (SD pooled): −0.5 (6.37)
[5]; [13]
  MADRS Total Score: Effect size: −0.23
  MADRS Total Score: Mean Change from Baseline (SD): −6.4 (6.77)
  MADRS Total Score: Mean Change to Placebo (SD pooled): −1.5 (6.65)
[5]; [14]
  MADRS Total Score: Effect size: −0.10
  MADRS Total Score: Mean Change from Baseline (SD): −7.3 (6.90)
  MADRS Total Score: Mean Change to Placebo (SD pooled): −0.7 (6.86)
[5]; [15]
  MADRS Total Score: Effect size: −0.29
  MADRS Total Score: Mean Change from Baseline (SD): −8.8 (7.48)
  MADRS Total Score: Mean Change to Placebo (SD pooled): −2.3 (7.80)
[5]; Treatment Week 6, both responders and non-responders during placebo lead-in, 10 mg vs placebo
  Change from Treatment Baseline in MADRS Total Score, Least Squares Mean Difference point estimate: −3.1 score on a scale
[5]; eITT
  MADRS LSMeans difference estimate, supplementary MMRM analysis (data prior to 15 Mar. 2020, COVID-19): −3.0
[5]; eITT, High anhedonia (baseline SHAPS >=38), Treatment Week 1
  MADRS Total Score Mean Change to Placebo: −1.8
[5]; eITT, High anhedonia (baseline SHAPS >=38), Treatment Week 3
  MADRS Total Score Mean Change to Placebo: −3.0
[5]; eITT, High anhedonia (baseline SHAPS >=38), Treatment Week 4
  MADRS Total Score Mean Change to Placebo: −2.2
[5]; eITT, High anhedonia (baseline SHAPS >=38), Treatment Week 5
  MADRS Total Score Mean Change to Placebo: −2.6
[5]; eITT, High anhedonia (baseline SHAPS >=38), Treatment Week 6
  MADRS Total Score Mean Change to Placebo: −3.4
[5]; eITT, Low anhedonia (baseline SHAPS >=20 and <38), Treatment Week 1
  MADRS Total Score Mean Change to Placebo: −0.5
[5]; eITT, Low anhedonia (baseline SHAPS >=20 and <38), Treatment Week 3
  MADRS Total Score Mean Change to Placebo: −0.1
[5]; eITT, Low anhedonia (baseline SHAPS >=20 and <38), Treatment Week 4
  MADRS Total Score Mean Change to Placebo: 0.0
[5]; eITT, Low anhedonia (baseline SHAPS >=20 and <38), Treatment Week 5
  MADRS Total Score Mean Change to Placebo: 0.3
[5]; eITT, Low anhedonia (baseline SHAPS >=20 and <38), Treatment Week 6
  MADRS Total Score Mean Change to Placebo: −0.9
[5]; eITT, Treatment Week 1
  MADRS Total Score Change from Baseline LSMean (SE), MMRM: 3.2
  MADRS Total Score LSMean Difference (SE) Treatment - Placebo, MMRM: −1.2
[5]; eITT, Treatment Week 3
  MADRS Total Score Effect Size vs placebo: −0.22
  MADRS Total Score LSMean Difference (SE) Treatment - Placebo, MMRM: −1.5
[5]; eITT, Treatment Week 4
  MADRS Total Score Effect Size vs placebo: −0.14
  MADRS Total Score LSMean Difference (SE) Treatment - Placebo, MMRM: −1.1
[5]; eITT, Treatment Week 5
  MADRS Total Score Effect Size vs placebo: −0.14
  MADRS Total Score LSMean Difference (SE) Treatment - Placebo, MMRM: −1.5
[5]; eITT, Treatment Week 6
  percentage of subjects with MADRS remission (MADRS total score≤10): 16.9%
  MADRS Total Score LSMean Difference (SE) Treatment - Placebo, MMRM: −2.1
[5]; fITT
  MADRS LSMeans difference estimate, supplementary MMRM analysis (data prior to 15 Mar. 2020, COVID-19): −3.4
[5]; fITT, FIG. 7B
  onset of significant treatment effect (MADRS LS mean change from baseline): 3 week
[5]; fITT, Treatment Week 1
  MADRS Total Score LSMean Difference (SE) Treatment - Placebo, MMRM: −1.6
  MADRS Total Score Mean Change from Baseline (SD): −3.1
[5]; fITT, Treatment Week 3
  MADRS Total Score Change from Baseline LSMean (SE), MMRM: −5.2
  MADRS Total Score Effect Size vs placebo: −0.26
  MADRS Total Score LSMean Difference (SE) Treatment - Placebo, MMRM: −1.9
  MADRS Total Score Mean Change from Baseline (SD): −5.1
[5]; fITT, Treatment Week 4
  MADRS Total Score Effect Size vs placebo: −0.32
  MADRS Total Score LSMean Difference (SE) Treatment - Placebo, MMRM: −2.5
  MADRS Total Score Mean Change from Baseline (SD): −7.2
[5]; fITT, Treatment Week 5
  MADRS Total Score Effect Size vs placebo: −0.26
  MADRS Total Score LSMean Difference (SE) Treatment - Placebo, MMRM: −2.4
  MADRS Total Score Mean Change from Baseline (SD): −8.3
[5]; fITT, Treatment Week 6
  percentage of subjects with MADRS remission (MADRS total score≤10): 31.2%
  MADRS Total Score Change from Baseline LSMean (SE), MMRM: −9.6
  MADRS Total Score LSMean Difference (SE) Treatment - Placebo, MMRM: −3.1
[5]; fITT, low anhedonia level (n=94), Treatment Week 6
  MADRS total score difference between aticaprant and placebo: −2.3
[5]; week 6
  LSMD (MADRS) in high anhedonia group relative to low anhedonia group: more than double
